Each block holds one molecule with its values, some of them ahead of it.
What was measured:
Format in all cases: physicochemical
[1] = Loss of UV absorber from high solids thermoset acrylic melamine clear coat, Xenon-Arc X180 cycle (Example 78); details: for durability (low loss rate absorbance values after exposure): in words, summary of the tables of Example 78
Excerpt: Following the general procedure of Example 77, a number of additional benzotriazole test compounds are incorporated into a high solids thermoset acrylic melamine resin at such concentrations between 1.93 and 3% by weight to give equal molar concentrations of test benzotriazole in equal film thickness, and sufficient to give a starting absorbance of approximately 2.0 absorbance units.
The test discs are exposed in a Xenon-Arc Weather-Ometer at X180 cycle (0.45 Watts/M^2). The initial UV absorbance is measured followed by measurements at roughly 250 hour intervals for the first 2000 hours and every 500 hours thereafter. Each clear coat also contains 1% by weight of a hindered amine light stabilizer, bis-(1-octyloxy-2,2,6,6-tetramethylpiperidin-4-yl) sebacate, as well.

[2] = UV absorption data (Example 74); details: 20 mg/l concentrations; not the molar extinction values
Procedure: In the following examples the absorbance at 375 nm is reported for 20 mg/l concentrations. This is not the molar extinction values.

[3] = Yellowness color of solutions in butyl acetate, Macbeth Color-Eye (Example 75); details: 30 mg/100 mL in butyl acetate; for DE: corresponding Yellowness Index value; for b: yellowness, Macbeth Color-Eye
Procedure: The following examples show the difference in color between some of the instant compounds as measured by a Macbeth Color-Eye instrument at a concentration of 30 mg/100 mL in butyl acetate. […] In the table, the compounds are listed by increasing b value. The instrument measures yellowness as b and DE is the corresponding Yellowness Index value.

[4] = UV absorption data (Example 74); set-up: ε @ λ max: unit not given beside the values
[5] = Loss of UV absorber from high solids thermoset acrylic clear coat, Xenon Arc Weather-Ometer (Example 77); details: after 1211 hours Xenon arc exposure; clear coat with 1% hindered amine; UV absorber at 5 mmol % by weight
Procedure: To ascertain the effect on thermal durability and loss rate from a high solids thermoset acrylic coating of various 2H-benzotriazole UV absorbers substituted by a variety of electron withdrawing and electron donating groups, the following tests are carried out.
A high solids thermoset acrylic clear coat is prepared by mixing an experimental acrylic polyol resin and hexamethoxymethylmelamine (Resimene® 747, Monsanto) at a solids ratio of 60/40. The dodecylbenzene sulfonic acid catalyst (Nacure® 5225; King Industries) is added at 0.70% by weight. A flow aid Modaflow® (Monsanto) is added at 0.25% by weight to form a model acrylic melamine resin system.
The model clear coat is reduced with xylene to a viscosity of 26-27 second using a Zahn #2 cup and applied via a conventional air spray at 50 psi (3.5 Kg/cm^2) over a 1″×3″ (2.54 cm×7.62 cm) quartz slide. Cure is achieved by baking the slide for 30 minutes at 260° F. (127° C.). The clear coat is stabilized with 1% by weight of a hindered amine light stabilizer, bis-(1-octyloxy-2,2,6,6-tetramethylpiperidin-4-yl)sebacate, (TINUVIN® 123, Ciba-Geigy). The various test benzotriazole UV absorbers are incorporated at the 5 mmol % by weight in the clear coat. The film thickness on the quartz slides range from 1.15 to 1.41 mils (0.029 to 0.036 mm).
The films on the quartz slides are weathered according to the following conditions in Xenon Arc Weather-Ometer with a controlled irradiance at 6500 W, using inner quartz and outer borosilicate S-type filter. The irradiation cycle is as follows: 40 minutes of straight irradiation with no water spray, followed by 20 minutes of light plus front spray, followed by 60 minutes of light irradiation and finally by 60 minutes dart plus rear spray (condensation). The setting is at 0.55 W/M^2 at 340 nm, 1.98 kJ/hour. In the light cycle the black panel temperature is controlled at 70±2° C. The relative humidity in the light cycle is in the range of 50-55% and in the dark cycle 100%. The absorbance of the long wavelength UV band as a function of Xenon arc weathering hours are recorded in the table below.
To follow the loss of UV absorbers from the clear coats, UV spectra are measured initially and after weathering at regular time intervals. The UV spectrophotometer measures absorbance linearly up to 5.5 absorbance units using a reference beam attenuation technique.
This is tested by following the ratio of absorbance of the band at about 300 nm and the band at about 340 nm.
The data in the table below are based on formula A after 1211 hours of exposure of the clear coats containing the test benzotriazole UV absorbers.

[6] = Durability in solvent cast polycarbonate film, Atlas C165 Xenon-arc, ASTM G26 (Example 80); details: for % Loss / Absorbance (max) Loss units: 1100 hrs
Procedure: (§1) The durability of representative benzotriazoles in thermoplastic substrates is determined by incorporating various test compounds into solvent cast films of poly(vinyl chloride), polycarbonate and polystyrene resins. The free standing films are mounted into cardboard holders, secured in metal frames and exposed in an Atlas C165 Xenon-arc Weather-Ometer under dry conditions according to ASTM G26 for 1100 and 2200 hour exposure. Loss of UV absorber is determined by monitoring the loss of diagnostic UV absorption as described earlier. Performance is measured by a change in color or the physical integrity of the film.
Polycarbonate flake (LEXAN® 145, General Electric) is dissolved in methylene chloride at room temperature along with between 1 and 3% by weight of test benzotriazole, based on the polycarbonate. Films are cast using a calibrated drawdown bar to prepare 1 mil thick film after drying.

[7] = Durability in solvent cast PVC films, Atlas C165 Weather-Ometer (Example 83); details: PVC film; for % Loss / Absorbance (max) Loss units: 1100 hrs
Procedure: as §1
PVC films of GEON® 27 (Geon Co.) are solvent cast as described above with warm tetrahydrofuran (THF) and exposed in an Atlas C165 Weather-Ometer as described in Example 60 for 1100 hours.

[8] = after 1253 hours of exposure, starting absorbance approximately 2.0, 1% hindered amine

Units Absorbance Loss [1, 8]: 0.2424
Units Absorbance Loss ([1]; after 1489 hours of exposure): 0.3724
Units Absorbance Loss ([1]; after 2521 hours of exposure): 0.4824
SMILES: CC(C)(c1ccccc1)c1cc(-c2ccccc2)c(O)c(-n2nc3ccccc3n2)c1 [R]

Units Absorbance Loss [5]: 0.4527
SMILES: CC(C)(c1ccccc1)c1ccc(O)c(-n2nc3ccccc3n2)c1 [G]

Units Absorbance Loss [5]: 1.6300
SMILES: CC(C)(C)CC(C)(C)c1cc(Cc2cc(C(C)(C)CC(C)(C)C)cc(-n3nc4ccccc4n3)c2O)c(O)c(-n2nc3ccccc3n2)c1 [Compound B, 2,2′-Methylene-bis[6-(2H-benzotriazol-2-yl)-4-tert-octylphenol]]

Absorbance (max) 1100 hrs ([6]; 2.5 wt %): 1.300
% Loss ([6]; 2.5 wt %): 2.5%
Absorbance (max) Loss units ([6]; 2.5 wt %): 0.033
Absorbance (max) 0 hrs ([6]; 2.5 wt %, AA at 364 nm): 1.333
Absorbance (max) 1100 hrs ([7]; 2.5 wt %): 1.103
% Loss ([7]; 2.5 wt %): 3.1%
Absorbance (max) Loss units ([7]; 2.5 wt %): 0.036
Absorbance (max) 0 hrs ([7]; 2.5 wt %, AA at 368 nm): 1.149
SMILES: CCCCCCCCCS(=O)(=O)c1ccc2nn(-c3cc(C(C)(C)CC(C)(C)C)cc(C(C)(C)c4ccccc4)c3O)nc2c1 [AA, 5-nonylsulfonyl-2-(2-hydroxy-3-α-cumyl-5-tert-octylphenyl)-2H-benzotriazole]

Units Absorbance Loss [5]: 0.3098
SMILES: CC(C)(C)c1cc(-n2nc3ccc(C#N)cc3n2)c(O)c(C(C)(C)C)c1 [N]

Units Absorbance Loss [5]: 1.7982
SMILES: CC(C)(C)CC(C)(C)c1ccc(O)c(-n2nc3ccccc3n2)c1 [Compound A, 2-(2-hydroxy-5-tert-octylphenyl)-2H-benzotriazole]

Units Absorbance Loss ([1]; after 1264 hours of exposure): 0.1796
Units Absorbance Loss ([1]; after 1518 hours of exposure): 0.2220
SMILES: CC(C)(C)CC(C)(C)c1cc(-c2ccccc2)c(O)c(-n2nc3ccccc3n2)c1 [X]

Units Absorbance Loss [5]: 0.3433
SMILES: COC(=O)CCc1cc(-n2nc3ccccc3n2)c(O)c(C(C)(C)c2ccccc2)c1 [M]

Units Absorbance Loss ([1]; after 1264 hours of exposure): 0.1655
Units Absorbance Loss ([1]; after 1518 hours of exposure): 0.1668
durability (low loss rate absorbance values after exposure) [1]: especially durable
SMILES: CC(C)(C)CC(C)(C)c1cc(-n2nc3ccc(F)cc3n2)c(O)c(C(C)(C)c2ccccc2)c1 [W, 5-Fluoro-2-(2-hydroxy-3-α-cumyl-5-tert-octylphenyl)-2H-benzotriazole]

The remaining lines, values behind:

SMILES: CC(C)(C)CC(C)(C)c1cc(-n2nc3ccc(S(=O)(=O)c4ccccc4)cc3n2)c(O)c(C(C)(C)c2ccccc2)c1 [Compound U, 5-phenylsulfonyl-2-(2-hydroxy-3-α-cumyl-5-tert-octylphenyl)-2H-benzotriazole]
Units Absorbance Loss ([1]; after 1264 hours of exposure): 0.0944
Units Absorbance Loss ([1]; after 1518 hours of exposure): 0.1114
durability (low loss rate absorbance values after exposure) [1]: especially durable
Absorbance @ 375 nm [2]: 0.50
DE [3]: 4.42
b [3]: 3.75
ε @ λ max [4]: 17,300
λ max nm [4]: 362 nm

SMILES: COC(=O)CCc1ccc(O)c(-n2nc3ccccc3n2)c1 [D]
Units Absorbance Loss [5]: 1.4002

SMILES: CC(C)(C)c1cc(CCCO)cc(-n2nc3ccccc3n2)c1O [Compound L]
Units Absorbance Loss [5]: 0.3712

SMILES: CCCCS(=O)(=O)c1ccc2nn(-c3cc(C(C)(C)CC(C)(C)C)cc(C(C)(C)c4ccccc4)c3O)nc2c1 [CC, 5-butylsulfonyl-2-(2-hydroxy-3-α-cumyl-5-tert-octylphenyl)-2H-benzotriazole]
Absorbance @ 375 nm [2]: 0.42
DE [3]: 3.35
b [3]: 2.84
ε @ λ max [4]: 14,100
λ max nm [4]: 359 nm

SMILES: CC(C)CCCCCOC(=O)CCc1cc(-n2nc3ccc(C(F)(F)F)cc3n2)c(O)c(C(C)(C)C)c1 [FF, isooctyl 3-(5-trifluoromethyl-2H-benzotriazol-2-yl)-5-tert-butyl-4-hydroxyhydro-cinnamate]
DE [3]: 0.72
b [3]: 0.54

SMILES: CC(C)(C)CC(C)(C)c1cc(C(C)(C)c2ccccc2)cc(-n2nc3ccccc3n2)c1O [I]
Units Absorbance Loss [5]: 0.4299

SMILES: COc1ccc2nn(-c3cc(C)cc(C(C)(C)C)c3O)nc2c1 [E]
Units Absorbance Loss [5]: 1.1872

SMILES: COC(=O)c1ccc2nn(-c3cc(C(C)(C)CC(C)(C)C)cc(C(C)(C)c4ccccc4)c3O)nc2c1 [DD, 5-carbomethoxy-2-(2-hydroxy-3-α-cumyl-5-tert-octylphenyl)-2H-benzotriazole]
Absorbance @ 375 nm [2]: 0.42
DE [3]: 2.25
b [3]: 1.85
ε @ λ max [4]: 15,700
λ max nm [4]: 358 nm

SMILES: CC(C)(C)c1cc(-n2nc3ccc(S(=O)(=O)c4ccccc4)cc3n2)c(O)c(C(C)(C)C)c1 [T]
Units Absorbance Loss [1, 8]: 0.1827
Units Absorbance Loss ([1]; after 1264 hours of exposure): 0.1965
Units Absorbance Loss ([1]; after 1489 hours of exposure): 0.2654
Units Absorbance Loss ([1]; after 1518 hours of exposure): 0.2423
Units Absorbance Loss ([1]; after 2521 hours of exposure): 0.3570
durability (low loss rate absorbance values after exposure) [1]: significantly more durable

SMILES: CC(C)(c1ccccc1)c1cc(-n2nc3ccccc3n2)c(O)c(C(C)(C)c2ccccc2)c1 [Compound P, 2-(2-hydroxy-3,5-di-α-cumylphenyl)-2H-benzotriazole]
Absorbance (max) 1100 hrs ([6]; 1.5 wt %): 0.919
% Loss ([6]; 1.5 wt %): 13.5%
Absorbance (max) Loss units ([6]; 1.5 wt %): 0.143
Absorbance (max) 0 hrs ([6]; 1.5 wt %, P at 347 nm): 1.062
Absorbance (max) 1100 hrs ([6]; 2.5 wt %): 1.844
% Loss ([6]; 2.5 wt %): 12.3%
Absorbance (max) Loss units ([6]; 2.5 wt %): 0.260
Absorbance (max) 0 hrs ([6]; 2.5 wt %, AA at 364 nm): 2.104
Units Absorbance Loss [5]: 0.2576
Absorbance (max) 1100 hrs ([7]; 1.5 wt %): 1.022
% Loss ([7]; 1.5 wt %): 10.7%
Absorbance (max) Loss units ([7]; 1.5 wt %): 0.123
Absorbance (max) 0 hrs ([7]; 1.5 wt %, P at 347 nm): 1.145
Absorbance (max) 1100 hrs ([7]; 2.5 wt %): 2.081
% Loss ([7]; 2.5 wt %): 5.6%
Absorbance (max) Loss units ([7]; 2.5 wt %): 0.130
Absorbance (max) 0 hrs ([7]; 2.5 wt %, AA at 368 nm): 2.211

SMILES: CC(C)(C)CC(C)(C)c1cc(-n2nc3ccccc3n2)c(O)c(C(C)(C)CC(C)(C)C)c1 [K]
Units Absorbance Loss [5]: 0.3777

SMILES: CC(C)(C)CC(C)(C)c1cc(-n2nc3ccc(Cl)cc3n2)c(O)c(C(C)(C)c2ccccc2)c1 [V, 5-Chloro-2-(2-hydroxy-3-α-cumyl-5-tert-octylphenyl)-2H-benzotriazole]
Units Absorbance Loss ([1]; after 1264 hours of exposure): 0.1719
Units Absorbance Loss ([1]; after 1518 hours of exposure): 0.1955
durability (low loss rate absorbance values after exposure) [1]: especially durable

SMILES: COC(=O)CCc1cc(-n2nc3ccccc3n2)c(O)c(C(C)(C)C)c1 [F]
Units Absorbance Loss [5]: 0.5259
